Test system: influenza proteins (A/Panama/2007/99)
Format: in vivo, Balb/C mice
Details: intranasal, day 0 and 14, 5 μg influenza proteins, lipopeptide in reconstituted membranes

Substance | enhancement of the immune response
N-palmitoyl-S-2,3(bispalmitoyloxy)-propyl-cysteinyl-seryl-(lysil)3-lysine [lysine derivative] | approximately equivalent enhancement of the immune response
N-palmitoyl-S-2,3(bispalmitoyloxy)-propyl-cysteinyl-seryl-(prolyl)3-proline [proline derivative] | approximately equivalent enhancement of the immune response

Reference: US7618641B2, “Functionally reconstituted viral membranes containing adjuvant” (priority 2003, dated 2009)
